# Activity calls are given as the source filed them. The rule behind the calls is not given here.
# Tests used:
# [1] = test system: Hemozoin; assay: Inhibition of beta-hematin formation in Plasmodium falciparum by UV-visible SpectraMax P340 plate reader analysis
# [2] = Selectivity index, ratio of IC50 for cytotoxicity against CHO cells to IC50 for antimalarial activity against chloroquine-sensitive Plasmodium falciparum NF54; format: toxicity, cell-based; details: hamster, CHO cells versus Plasmodium falciparum NF54; read-out: Ratio IC50
# [3] = test system: Plasmodium falciparum; assay: Antimalarial activity against ring stage chloroquine-resistant Plasmodium falciparum RKL9 assessed as inhibition of parasite growth by SYBR green I dye based assay; format: functional, organism-based
# [4] = molecular target: T1, Falcipain 2 (Plasmodium falciparum) (UniProt Q9N6S8); assay: Binding affinity to N-terminal 6His-tagged recombinant Plasmodium falciparum FP2 expressed in Escherichia coli M15 assessed as dissociation rate constant (Koff) by surface plasmon resonance analysis
# T1 sequence (whole entry): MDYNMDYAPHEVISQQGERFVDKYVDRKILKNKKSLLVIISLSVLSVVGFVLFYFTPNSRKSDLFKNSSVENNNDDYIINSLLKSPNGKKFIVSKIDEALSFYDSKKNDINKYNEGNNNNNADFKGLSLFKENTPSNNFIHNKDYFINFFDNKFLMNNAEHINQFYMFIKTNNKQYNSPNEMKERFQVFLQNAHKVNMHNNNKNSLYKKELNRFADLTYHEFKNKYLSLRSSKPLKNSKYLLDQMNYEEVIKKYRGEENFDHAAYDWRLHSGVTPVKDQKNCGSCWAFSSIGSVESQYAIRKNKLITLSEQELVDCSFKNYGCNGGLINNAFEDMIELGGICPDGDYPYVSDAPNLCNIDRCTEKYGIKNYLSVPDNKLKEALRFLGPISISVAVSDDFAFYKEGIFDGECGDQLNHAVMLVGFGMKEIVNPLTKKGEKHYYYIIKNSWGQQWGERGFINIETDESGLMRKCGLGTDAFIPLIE
# [5] = molecular target: T2, Falcipain-3 (Plasmodium falciparum 3D7) (UniProt Q8IIL0); assay: Binding affinity to N-terminal 6His-tagged recombinant Plasmodium falciparum FP3 expressed in Escherichia coli M15 assessed as dissociation rate constant (Koff) by surface plasmon resonance analysis
# T2 sequence (whole entry): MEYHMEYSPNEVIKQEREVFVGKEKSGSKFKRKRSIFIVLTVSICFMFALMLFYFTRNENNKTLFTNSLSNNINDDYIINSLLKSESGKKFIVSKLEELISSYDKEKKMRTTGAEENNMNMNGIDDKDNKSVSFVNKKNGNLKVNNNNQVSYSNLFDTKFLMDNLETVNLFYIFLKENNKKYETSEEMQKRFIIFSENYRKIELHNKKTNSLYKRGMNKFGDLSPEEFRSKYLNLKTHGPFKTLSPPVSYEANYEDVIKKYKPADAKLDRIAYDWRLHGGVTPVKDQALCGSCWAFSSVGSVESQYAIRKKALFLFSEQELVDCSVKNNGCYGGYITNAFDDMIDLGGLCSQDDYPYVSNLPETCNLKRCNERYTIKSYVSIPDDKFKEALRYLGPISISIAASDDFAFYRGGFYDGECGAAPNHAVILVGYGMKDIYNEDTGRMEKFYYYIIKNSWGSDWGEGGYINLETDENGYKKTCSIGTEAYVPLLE
# [6] = molecular target: T2, Falcipain-3 (Plasmodium falciparum 3D7); assay: Inhibition of N-terminal 6His-tagged recombinant Plasmodium falciparum FP3 expressed in Escherichia coli M15 using Z-Phe-Arg-AMC as substrate at 10 uM measured after 30 mins by microplate reader analysis relative to control
# [7] = test system: Plasmodium falciparum; assay: Antimalarial activity against schizont stage Plasmodium falciparum infected in erythrocytes assessed as decrease in falcipain-mediated substrate hydrolysis by measuring reduction in fluorescence intensity of the fluorogenic peptide at 5 uM pre-incubated for 1 hr followed by Z-Phe-Arg-AMC substrate addition and measured after 5 to 10 mins by confocal microscopic analysis; format: functional, organism-based; details: Erythrocyte, time 65-70 min
# [8] = test system: Plasmodium falciparum; assay: Antimalarial activity against synchronized ring stage Plasmodium falciparum assessed as increase in undigested hemoglobin level at 1 to 4 uM incubated for 20 hrs by absorbance based analysis; format: functional, organism-based; details: dose 1-4 µM
# [9] = test system: Plasmodium falciparum; assay: Antimalarial activity against synchronized ring stage Plasmodium falciparum assessed as accumulation of free heme at 1 to 4 uM incubated for 20 hrs by absorbance based analysis; format: functional, organism-based; details: dose 1-4 µM
# [10] = test system: Plasmodium falciparum; assay: Antimalarial activity against synchronized ring stage Plasmodium falciparum assessed as reduction in hemozoin level at 1 to 4 uM incubated for 20 hrs by absorbance based analysis; format: functional, organism-based; details: dose 1-4 µM
# [11] = test system: Plasmodium falciparum; assay: Antimalarial activity against synchronized-ring stage chloroquine-sensitive Plasmodium falciparum 3D7 assessed as reduction in parasitemia measured upto 60 hrs post-treatment by Giemsa staining based light microscopic analysis (reference value: 3.9 %); format: functional; design: scale not given: the % may be the effect or the level left
# [12] = test system: Plasmodium falciparum; assay: Antimalarial activity against synchronized-ring stage chloroquine-sensitive Plasmodium falciparum 3D7 assessed as halt in parasite multiplication by measuring appearance of pyknotic bodies measured after 36 hrs by Giemsa staining based light microscopic analysis; format: functional, organism-based
# [13] = test system: Plasmodium falciparum; assay: Antimalarial activity against synchronized-ring stage chloroquine-sensitive Plasmodium falciparum 3D7 assessed as inhibition of parasite growth by measuring pyknotic appearance measured upto 60 hrs by Giemsa staining based light microscopic analysis; format: functional, organism-based
# [14] = test system: Plasmodium falciparum; assay: Antimalarial activity against schizont stage chloroquine-sensitive Plasmodium falciparum 3D7 assessed as growth inhibition incubated with compound for 6 hrs and measured 72 hrs post invasion by SYBR Green dye based analysis; format: functional, organism-based
# [15] = test system: Plasmodium berghei; assay: Antimalarial activity against Plasmodium berghei ANKA infected in female BALB/c mouse assessed as survival at 50 to 100 mg/kg, ip; format: functional; details: dose 50-100 mg/kg
# [16] = Metabolic stability in mouse liver S9 fraction assessed as intrinsic clearance at 2 uM measured for 90 mins by LC-MS/MS analysis; format: ADME, subcellular; details: read-out: CLH
# [17] = Drug metabolism in human liver S9 fraction assessed as mono-hydroxylation mediated metabolite formation at 2 uM measured for 90 mins by LC-MS/MS analysis; format: ADME, subcellular; details: s9, 1.5 h
# [18] = Toxicity in mouse assessed as frequency of rearing activity at 100 mg/kg measured over 5 mins by open field arena test (reference value: 18.14 +/- 2.6 sec); format: organism-based; details: in vivo
# [19] = Toxicity in mouse assessed as frequency of rearing activity at 200 mg/kg measured over 5 mins by open field arena test (reference value: 18.14 +/- 2.6 sec); format: organism-based; details: in vivo
# [20] = Toxicity in mouse assessed as latency time to the central area at 200 mg/kg by open field test (reference value: 106.48 +/- 43.19 sec); format: organism-based; details: in vivo, 43 s
# [21] = Toxicity in mouse assessed as grooming time at 100 mg/kg by open field test (reference value: 10.91 +/- 2.01 sec); format: organism-based; details: in vivo, 2 s
# [22] = Toxicity in mouse assessed as impairment of short-term memory at 100 mg/kg by novel object recognition test (reference value: 11.87 +/- 3.82 ); format: organism-based; details: in vivo
# [23] = Toxicity in mouse assessed as latency to fall off the rotating rod by measuring neuromuscular coordination index at 200 mg/kg by rotarod apparatus (reference value: 12.45 +/- 1.48 ); format: organism-based; details: in vivo
# [24] = Toxicity in mouse assessed as cell death in spleen at 100 to 200 mg/kg measured after 7 days by hematoxylin and eosin staining based analysis; format: organism-based; details: in vivo, 168 h, dose 100-200 mg/kg, time 7 day
# [25] = Toxicity in mouse assessed as effect on water intake at 100 to 200 mg/kg measured for 7 days; format: organism-based; details: in vivo, 168 h, dose 100-200 mg/kg, time 7 day
smiles,measurement,setting,value
O=C(Cn1cc(CN2CCN(c3ccnc4cc(Cl)ccc34)CC2)nn1)Nc1cccc([N+](=O)[O-])c1,IC50,[1],19.9 µM
same,selectivity ratio,[2],160
same,IC50,[3],1.8 µM
same,K,[4],0.097 s⁻¹
same,K,[5],0.305 s⁻¹
same,inhibition,[6],28.5%
same,Activity,[7],Active
same,Activity,[8],Active
same,Activity,[9],Active
same,Activity,[10],Active
same,Activity,[11],1.03%
same,Activity,[12],Active
same,Activity,[13],Active
same,IC50,[14],3.09 µM
same,Survival,[15],<=30 day
same,microsomal CLint at 2 µM,[16],7.78 µL/min/mg
same,Drug metabolism,[17],Metabolite_Detected
same,Activity,[18],14.17 s
same,Activity,[19],14.32 s
same,Time,[20],54.39 s
same,Time,[21],12.04 s
same,Activity,[22],3.6
same,Activity_index,[23],10.75
same,Activity,[24],Non-Toxic
same,Activity,[25],Non-Toxic

# — ChEMBL document CHEMBL5523667, “Blood-stage antimalarial activity, favourable metabolic stability and in vivo toxicity of novel piperazine linked 7-chloroquinoline-triazole conjugates” (Eur J Med Chem, 2024)
